Oligonucleotides are written 5' to 3', each unit as a sugar letter and its base; * is a phosphorothioate linkage, no mark a phosphodiester; rarer units and linkages stand in square brackets, end groups in braces. Plain capitals give the bases only. d = 2'-deoxy (DNA); r = 2'-OH (RNA)
Further: test concentration or dose not given here.

A short description of the series: reporter assay of Huesken 2005. The conditions noted are these: siRNA.
In the case of “sense rCrCrArGrArGrUrGrGrArArArCrUrCrArCrArCdTdT / antisense rGrUrGrUrGrArGrUrUrUrCrCrArCrUrCrUrGrGdTdG”, the normalised inhibition (eCFP-eYFP dual reporter) was 95.3%. For “sense rCrUrUrGrArGrGrGrArGrArGrUrUrGrUrArCrCdTdT / antisense rGrGrUrArCrArArCrUrCrUrCrCrCrUrCrArArGdCdC”, the normalised inhibition (eCFP-eYFP dual reporter) turned out to be 63.4%.

On to “sense rUrCrArUrUrGrUrUrCrCrUrGrUrGrArArCrUrGdTdT / antisense rCrArGrUrUrCrArCrArGrGrArArCrArArUrGrAdAdA”, for which the normalised inhibition (eCFP-eYFP dual reporter) worked out at 66.7%. With “sense rUrGrUrGrUrGrCrUrUrCrCrUrCrUrCrCrCrArUdTdT / antisense rArUrGrGrGrArGrArGrGrArArGrCrArCrArCrAdGdT” the figure was 104%. The same measure for “sense rGrArGrArGrArGrCrArArCrArGrGrGrUrArUrGdTdT / antisense rCrArUrArCrCrCrUrGrUrUrGrCrUrCrUrCrUrCdCdC”: 85.5%; for “sense rCrArCrCrArGrArGrCrCrUrGrCrCrCrCrArCrCdTdT / antisense rGrGrUrGrGrGrGrCrArGrGrCrUrCrUrGrGrUrGdTdG”: 90.4%; for “sense rCrUrUrGrCrCrUrCrUrGrArGrGrArArUrGrArGdTdT / antisense rCrUrCrArUrUrCrCrUrCrArGrArGrGrCrArArGdAdA”: 59.8%. With “sense rGrGrCrArGrArCrUrArCrArGrUrUrUrCrUrUrUdTdT / antisense rArArArGrArArArCrUrGrUrArGrUrCrUrGrCrCdAdG” the figure was 86%; with “sense rGrArGrUrCrArArArGrGrUrCrArCrCrArGrArGdTdT / antisense rCrUrCrUrGrGrUrGrArCrCrUrUrUrGrArCrUrCdCdC”, 85.9%. In the case of “sense rGrArGrGrArCrUrCrCrUrUrCrCrUrUrCrUrCrUdTdT / antisense rArGrArGrArArGrGrArArGrGrArGrUrCrCrUrCdTdG”, the normalised inhibition (eCFP-eYFP dual reporter) was found to be 81.2%.

Consider “sense rArGrArArGrArArArCrUrUrGrCrUrCrCrArGrAdTdT / antisense rUrCrUrGrGrArGrCrArArGrUrUrUrCrUrUrCrUdCdA”, for which the normalised inhibition (eCFP-eYFP dual reporter) turned out to be 90%. With “sense rGrCrCrCrUrCrCrUrGrUrGrArCrCrUrCrCrArUdTdT / antisense rArUrGrGrArGrGrUrCrArCrArGrGrArGrGrGrCdAdC” the figure was 89%; with “sense rUrGrUrGrGrArCrUrCrUrGrArGrArArGrArArAdTdT / antisense rUrUrUrCrUrUrCrUrCrArGrArGrUrCrCrArCrAdAdG”, 85.5%.

On to “sense rArGrUrGrArUrCrCrCrGrGrGrGrCrUrGrArGrAdTdT / antisense rUrCrUrCrArGrCrCrCrCrGrGrGrArUrCrArCrUdGdG”, for which the normalised inhibition (eCFP-eYFP dual reporter) worked out at 94.9%. For the substance “sense rGrUrCrCrCrUrGrArGrGrArGrCrCrCrUrUrArGdTdT / antisense rCrUrArArGrGrGrCrUrCrCrUrCrArGrGrGrArCdGdG”, the normalised inhibition (eCFP-eYFP dual reporter) amounted to 85.8%.

In the case of “sense rArUrUrGrUrUrCrCrUrGrUrGrArArCrUrGrUrGdTdT / antisense rCrArCrArGrUrUrCrArCrArGrGrArArCrArArUdGdA”, the normalised inhibition (eCFP-eYFP dual reporter) came out at 76.9%. With “sense rArArGrArArArCrUrUrGrCrUrCrCrArGrArUrUdTdT / antisense rArArUrCrUrGrGrArGrCrArArGrUrUrUrCrUrUdCdT”, the normalised inhibition (eCFP-eYFP dual reporter) was 79%. With “sense rArArUrGrArGrCrUrCrCrUrUrArCrUrUrArArCdTdT / antisense rGrUrUrArArGrUrArArGrGrArGrCrUrCrArUrUdCdC” the figure was 70.8%. As for “sense rGrGrCrArGrCrGrGrGrArGrArGrArGrCrArArCdTdT / antisense rGrUrUrGrCrUrCrUrCrUrCrCrCrGrCrUrGrCrCdCdC”, the normalised inhibition (eCFP-eYFP dual reporter) stood at 61.9%. With “sense rUrCrCrCrCrArUrArGrGrCrUrUrUrGrGrArGrCdTdT / antisense rGrCrUrCrCrArArArGrCrCrUrArUrGrGrGrGrAdTdA” the figure was 35.8%. With “sense rCrUrUrCrUrGrArGrCrArArUrArUrCrCrCrCrAdTdT / antisense rUrGrGrGrGrArUrArUrUrGrCrUrCrArGrArArGdTdT” the figure was 93%; with “sense rGrGrCrUrCrUrGrUrCrUrCrUrCrUrGrCrCrArCdTdT / antisense rGrUrGrGrCrArGrArGrArGrArCrArGrArGrCrCdAdC”, 45.8%. As to “sense rUrCrCrCrUrGrCrUrUrCrUrGrArGrArCrUrUrCdTdT / antisense rGrArArGrUrCrUrCrArGrArArGrCrArGrGrGrAdAdG”, the normalised inhibition (eCFP-eYFP dual reporter) was determined as 67.9%.

On to “sense rUrGrArArGrCrUrGrGrUrCrUrGrUrGrGrCrArGdTdT / antisense rCrUrGrCrCrArCrArGrArCrCrArGrCrUrUrCrAdGdA”, for which the normalised inhibition (eCFP-eYFP dual reporter) amounted to 44.4%.

Turning to “sense rCrArCrCrArGrArGrUrGrGrArArArCrUrCrArCdTdT / antisense rGrUrGrArGrUrUrUrCrCrArCrUrCrUrGrGrUrGdAdC”, the normalised inhibition (eCFP-eYFP dual reporter) came to 92.8%.

On to “sense rArCrUrUrArArCrUrUrCrUrGrArGrCrArArUrAdTdT / antisense rUrArUrUrGrCrUrCrArGrArArGrUrUrArArGrUdAdA”, for which the normalised inhibition (eCFP-eYFP dual reporter) stood at 90.7%.

As to “sense rCrCrUrGrUrCrArGrGrGrGrUrCrGrGrArGrUrGdTdT / antisense rCrArCrUrCrCrGrArCrCrCrCrUrGrArCrArGrGdCdA”, the normalised inhibition (eCFP-eYFP dual reporter) amounted to 72.5%.

On to “sense rArArArCrGrCrCrUrArCrGrGrGrArGrUrCrArAdTdT / antisense rUrUrGrArCrUrCrCrCrGrUrArGrGrCrGrUrUrUdGdC”, for which the normalised inhibition (eCFP-eYFP dual reporter) was 93.6%.

Turning to “sense rUrArGrGrCrUrUrGrArGrGrGrArGrArGrUrUrGdTdT / antisense rCrArArCrUrCrUrCrCrCrUrCrArArGrCrCrUrAdAdA”, the normalised inhibition (eCFP-eYFP dual reporter) stood at 76.7%. The same measure for “sense rCrGrGrGrGrCrUrGrArGrArArArGrUrUrCrGrUdTdT / antisense rArCrGrArArCrUrUrUrCrUrCrArGrCrCrCrCrGdGdG”: 95.2%; for “sense rUrUrUrGrCrArGrUrUrGrGrArGrArUrUrCrArGdTdT / antisense rCrUrGrArArUrCrUrCrCrArArCrUrGrCrArArAdCdG”: 48.6%. In the case of “sense rGrGrCrArGrGrArGrArUrArGrCrCrCrArGrGrGdTdT / antisense rCrCrCrUrGrGrGrCrUrArUrCrUrCrCrUrGrCrCdAdC”, the normalised inhibition (eCFP-eYFP dual reporter) was 67.7%. With “sense rCrUrCrUrGrUrCrUrCrUrCrUrGrCrCrArCrArUdTdT / antisense rArUrGrUrGrGrCrArGrArGrArGrArCrArGrArGdCdC” the figure was 62.3%; with “sense rGrGrUrGrGrCrUrCrUrGrUrCrUrCrUrCrUrGrCdTdT / antisense rGrCrArGrArGrArGrArCrArGrArGrCrCrArCrCdGdG”, 71.5%; with “sense rCrUrUrArGrUrCrCrCrCrUrCrUrUrUrCrUrGrGdTdT / antisense rCrCrArGrArArArGrArGrGrGrGrArCrUrArArGdGdG”, 87.5%. Consider “sense rArGrArCrUrArCrArGrUrUrUrCrUrUrUrCrCrCdTdT / antisense rGrGrGrArArArGrArArArCrUrGrUrArGrUrCrUdGdC”, for which the normalised inhibition (eCFP-eYFP dual reporter) came out at 55.6%. With “sense rArCrArCrCrArGrArGrCrCrUrGrCrCrCrCrArCdTdT / antisense rGrUrGrGrGrGrCrArGrGrCrUrCrUrGrGrUrGrUdGdA” the figure was 72.8%; with “sense rUrGrGrArUrUrUrArGrGrCrUrUrGrArGrGrGrAdTdT / antisense rUrCrCrCrUrCrArArGrCrCrUrArArArUrCrCrAdGdA”, 81.4%. With “sense rUrGrCrCrCrArUrUrGrUrGrUrUrCrCrCrUrUrGdTdT / antisense rCrArArGrGrGrArArCrArCrArArUrGrGrGrCrAdGdG” the figure was 95.4%; with “sense rCrCrCrGrGrGrGrCrUrGrArGrArArArGrUrUrCdTdT / antisense rGrArArCrUrUrUrCrUrCrArGrCrCrCrCrGrGrGdAdT”, 85.4%; with “sense rArArUrCrUrGrGrCrArGrArCrUrArCrArGrUrUdTdT / antisense rArArCrUrGrUrArGrUrCrUrGrCrCrArGrArUrUdCdC”, 81.7%. With “sense rCrArGrGrGrUrArUrGrCrArCrArCrCrCrGrUrGdTdT / antisense rCrArCrGrGrGrUrGrUrGrCrArUrArCrCrCrUrGdTdT” the figure was 70.6%; with “sense rUrUrUrArGrGrGrUrGrCrCrCrArCrUrUrArGrGdTdT / antisense rCrCrUrArArGrUrGrGrGrCrArCrCrCrUrArArAdAdG”, 48.8%; with “sense rUrGrUrGrArCrCrUrCrCrArUrCrUrArCrUrCrUdTdT / antisense rArGrArGrUrArGrArUrGrGrArGrGrUrCrArCrAdGdG”, 96.8%. Consider “sense rGrGrCrUrUrUrGrGrArGrCrCrCrUrUrCrUrGrCdTdT / antisense rGrCrArGrArArGrGrGrCrUrCrCrArArArGrCrCdTdA”, for which the normalised inhibition (eCFP-eYFP dual reporter) amounted to 73.7%. The same measure for “sense rUrGrUrUrCrCrUrUrGrUrGrGrArCrUrCrUrGrAdTdT / antisense rUrCrArGrArGrUrCrCrArCrArArGrGrArArCrAdTdC”: 94.3%; for “sense rUrGrCrCrUrCrCrCrUrUrGrArGrGrCrGrUrCrUdTdT / antisense rArGrArCrGrCrCrUrCrArArGrGrGrArGrGrCrAdAdT”: 34.1%.

With “sense rCrArArUrCrCrGrCrCrCrCrArCrCrCrUrUrUrAdTdT / antisense rUrArArArGrGrGrUrGrGrGrGrCrGrGrArUrUrGdGdG”, the normalised inhibition (eCFP-eYFP dual reporter) amounted to 80.2%. The same measure for “sense rGrCrArArCrArGrGrGrUrArUrGrCrArCrArCrCdTdT / antisense rGrGrUrGrUrGrCrArUrArCrCrCrUrGrUrUrGrCdTdC”: 72.5%.

(Values after the OligoGym collection.)
